This is an account of results in US10858342B2, “Bicyclic imidazole derivatives useful for the treatment of renal diseases, cardiovascular diseases and fibrotic diseases” (Boehringer Ingelheim International GmbH, priority 2016, dated 2020).

Where two headings read alike, the source gives them in different places. Bounds are passed on as bounds.

Broadly, the IC50 is the concentration that gives 50% inhibition.

What all share (assay type): biochemical, cynomolgus monkey
Assay [1] has as its target aldosterone synthase (CYP11B2) (Macaca fascicularis, UniProt A0A2K5UPL9). Description: Inhibition of aldosterone synthase (cynomolgus adrenal mitochondria, aldosterone by mass spectrometry). To be noted: 2 μM corticosterone substrate, 50 units CYP11B2, 90 min, 37° C.; read-out: Aldosterone Inhibition IC50. The protocol:
(§1) The aldosterone synthase and cortisol synthase inhibition assays employ cynomolgus adrenal gland mitochondria as the source of aldosterone synthase (CYP11B2) and cortisol synthase (CYP11B1). […] One unit of CYP11B2 and CYP11B1 activity in these preparations is defined as the amount of enzyme that generates 1 pmol of product in one hour under the conditions described.
(§2) The compounds of the invention may be evaluated for aldosterone synthase inhibition by the following assay:
(§3) Assays are performed in 96-well format in a final volume of 60 microL/well, containing 100 mM potassium phosphate, pH 7.4, 1% (v/v) DMSO, and additionally, 2 μM of corticosterone and 50 units of CYP11B2 activity. Reactions are started by the addition of NADPH to 1 mM and allowed to proceed for 90 minutes at 37° C. Reactions are terminated by the addition of 60 μL of MeCN containing an internal standard for mass spectrometry. One hundred microliters are then transferred to a glass filter plate and centrifuged at 570×g for 5 minutes and the filtrate is collected. Reaction product aldosterone is quantified by mass spectrometry. To determine the assay blank value (0% activity), NADPH is omitted from some reactions.
(§4) Dose dependent inhibition is quantified by the inclusion of compound at various concentrations. Maximum activity (100%) is defined by reactions containing NADPH, but without compound.

For assay [2], the system named is aldosterone synthase (CYP11B2). The assay is described as above. The following applies: selectivity for aldosterone synthase inhibition over cortisol synthase (CYP11B1) inhibition, fold. The method, then:
as §1, §2, §3, §4

In assay [3] the target is cortisol synthase (CYP11B1) (Macaca fascicularis, UniProt A0A2K5ULY1). Description: Inhibition of cortisol synthesis (cynomolgus adrenal mitochondria, cortisol by mass spectrometry). The method, then:
The aldosterone synthase and cortisol synthase inhibition assays employ cynomolgus adrenal gland mitochondria as the source of aldosterone synthase (CYP11B2) and cortisol synthase (CYP11B1). Mitochondria are prepared from frozen cynomolgus monkey adrenal glands according to Method A described in by J. D. McGarry et al. (Biochem. J., 1983, 214, 21-28), with a final resuspension in the AT buffer described in R. Yamaguchi et al. (Cell Death and Differentiation, 2007, 14, 616-624), frozen as aliquots in liquid nitrogen and stored at −80° C. until use. One unit of CYP11B2 and CYP11B1 activity in these preparations is defined as the amount of enzyme that generates 1 pmol of product in one hour under the conditions described.
as §3
Dose dependent inhibition is quantified by the inclusion of compound at various concentrations. Maximum activity (100%) is defined by reactions containing NADPH, but without compound. Activities at each concentration are expressed as a percentage of the maximum activity (y-axis) and plotted against concentration of compound (x-axis) and the concentration corresponding to 50% activity (IC50) determined using the XLFit curve-fitting program using a 4-parameter logistic model.
Assays are performed as for aldosterone synthase except for the use of 150 units of CYP11B1, 11-deoxycortisol as substrate and cortisol measured as product.

The mark [4] stands for this setting: 11-deoxycortisol substrate, 150 units CYP11B1; read-out: Cortisol Inhibition IC50.
[5] abbreviates: read-out: Cortisol Inhibition IC50; 11-deoxycortisol substrate, 150 units CYP11B1.

Sequence of aldosterone synthase (CYP11B2) (Macaca fascicularis, UniProt A0A2K5UPL9) (A0A2K5UPL9 1-503): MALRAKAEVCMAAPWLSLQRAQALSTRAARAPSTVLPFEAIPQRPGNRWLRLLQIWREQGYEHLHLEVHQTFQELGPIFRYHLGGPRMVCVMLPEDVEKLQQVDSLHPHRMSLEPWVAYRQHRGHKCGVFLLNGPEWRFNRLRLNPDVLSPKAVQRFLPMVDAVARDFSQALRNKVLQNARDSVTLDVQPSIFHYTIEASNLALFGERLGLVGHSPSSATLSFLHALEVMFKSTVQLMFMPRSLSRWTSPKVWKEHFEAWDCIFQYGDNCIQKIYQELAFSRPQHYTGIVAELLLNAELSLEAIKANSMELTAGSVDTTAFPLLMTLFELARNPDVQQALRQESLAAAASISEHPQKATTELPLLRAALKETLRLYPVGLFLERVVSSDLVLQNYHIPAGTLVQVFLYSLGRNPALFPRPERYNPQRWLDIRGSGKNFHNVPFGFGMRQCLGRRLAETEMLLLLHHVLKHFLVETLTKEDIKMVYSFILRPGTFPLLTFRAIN

With `N#Cc1ccc(-n2cnc3c2C(=O)CC2(CCC2)C3)cc1` [C-AAT, 4-(7-Oxospiro[4,6-dihydrobenzimidazole-5,1′-cyclobutan]-1-yl)benzonitrile], the figures for the IC50 in assay [1] and in assay [3] (setting [4]) were 0.0038 µM and 0.48 µM, respectively. This compound gave a Selectivity in assay [2] of 130.

For the compound `CN1CCOc2cc(Cn3cnc4c3C(=O)CC(C)(C)C4)cnc21` [C-ADD, 6,6-Dimethyl-3-(4-methyl-3,4-dihydro-2H-pyrido[3,2-b][1,4]oxazin-7-ylmethyl)-3,5,6,7-tetrahydro-benzoimidazol-4-one], the IC50 in assay [1] was found to be 0.54 µM; in assay [3] (setting [4]) it was 11 µM. This compound also registered a Selectivity in assay [2] of 20.

As for `Cc1cc(-n2cnc3c2C(=O)CC2(CCC2)C3)ccc1C#N` [C-AAU, 2-Methyl-4-(7-oxospiro[4,6-dihydrobenzimidazole-5,1′-cyclobutan]-1-yl)benzonitrile], the IC50 in assay [1] came out at 0.01 µM; in assay [3] (setting [4]) it was 0.051 µM. Also, the Selectivity in assay [2] was 5.0.

With `CCO[C@H]1C[C@H](n2cnc3c2C(=O)CC(C)(C)C3)C12CCC2` (relative stereo) [C-ADM, 3-((1S,3S)-3-Ethoxy-spiro[3.3]hept-1-yl)-6,6-dimethyl-3,5,6,7-tetrahydro-benzoimidazol-4-one], the half-inhibitory concentration (IC50) in assay [1] is 0.072 µM; in assay [3] (setting [4]) it was greater than 30 µM. For the same compound, in assay [2], the Selectivity is reported as 420.

Take `CC1(C)CC(=O)c2c(ncn2CC2CCCCC2)C1` [C-ACP, 3-Cyclohexylmethyl-6,6-dimethyl-3,5,6,7-tetrahydro-benzoimidazol-4-one]: the IC50 is 0.024 µM in assay [1] and 5.9 µM in assay [3] (setting [4]). The compound further displayed a Selectivity in assay [2] of 240.

Regarding `CC1(C)CC(=O)c2c(ncn2-c2ccc(Cl)c(Cl)c2)C1` [C-ABD, 3-(3,4-Dichloro-phenyl)-6,6,-dimethyl-3,5,6,7-tetrahydro-benzoimidazol-4-one], the IC50 in assay [1] is 0.0031 µM; in assay [3] (setting [4]), 0.37 µM. In assay [2], this compound returned a Selectivity of 120.

Take `CC1(C)CC(=O)c2c(ncn2-c2cccc(Cl)c2Cl)C1` [C-ABF, 3-(2,3-Dichloro-phenyl)-6,6-dimethyl-3,5,6,7-tetrahydro-benzoimidazol-4-one]: the results for the half-inhibitory concentration (IC50) in assay [1] and in assay [3] (setting [4]) were 0.0038 µM and 0.61 µM, respectively. The Selectivity in assay [2] was determined as 160.

For `N#Cc1ccc(-n2cnc3c2C(=O)CCC3)cc1Cl` [C-AEA, 2-Chloro-4-(7-oxo-4,5,6,7-tetrahydro-benzoimidazol-1-yl)-benzonitrile], the values for the 50% inhibitory concentration (IC50) in assay [1] and in assay [3] (setting [5]) were 0.0087 µM and 1.1 µM, respectively. In assay [2], this compound registered a Selectivity of 130.

Take `CC1(C)CCc2ncn(-c3ccc(C#N)cc3)c2C1=O` [C-ADX, 4-(6,6-Dimethyl-7-oxo-4,5,6,7-tetrahydro-benzoimidazol-1-yl)-benzonitrile]: the IC50 in assay [1] worked out at 0.014 µM; in assay [3] (setting [4]), 2.14 µM. The compound also showed a Selectivity in assay [2] of 153.

As for `O=C1CCCc2ncn(-c3ccc4c(c3)COC4)c21` [C-AAB, 3-(1,3-Dihydro-isobenzofuran-5-yl)-3,5,6,7-tetrahydro-benzoimidazol-4-one], the 50% inhibitory concentration (IC50) was determined as 0.085 µM in assay [1] and 23 µM in assay [3] (setting [4]). This compound also yielded a Selectivity in assay [2] of 270.

Consider `O=C1CCCc2ncn(C3CCc4ccccc4C3)c21` (stereo not drawn) [C-ADJ, 3-(1,2,3,4-Tetrahydro-naphthalen-2-yl)-3,5,6,7-tetrahydro-benzoimidazol-4-one], for which the figures for the concentration for half-maximal inhibition (IC50) in assay [1] and in assay [3] (setting [4]) were 0.0028 µM and 1.2 µM, respectively. Further, in assay [2], the Selectivity is listed as 420.

Consider `O=C1CC2(CCOCC2)Cc2ncn(-c3ccc(Cl)cc3)c21` [C-AAR, 3-(4-Chloro-phenyl)-6,6-3-o-tetrahydropyran-3,5,6,7-tetrahydro-benzoimidazol-4-one], for which the values for the IC50 in assay [1] and in assay [3] (setting [4]) were 0.069 µM and 5 µM, respectively. Also, in assay [2], the Selectivity came to 73.

As to `CNC(=O)[C@H]1CC(=O)c2c(ncn2-c2ccc(C#N)c(Cl)c2)C1` [C-AEH, (R)-1-(3-Chloro-4-cyano-phenyl)-7-oxo-4,5,6,7-tetrahydro-1H-benzoimidazole-5-carboxylic acid methylamide], the values for the concentration for half-maximal inhibition (IC50) in assay [1] and in assay [3] (setting [5]) were 0.057 µM and greater than 30 µM, respectively. In addition, the Selectivity in assay [2] is 526.

Turning to `CC(=O)c1ccc(-n2cnc3c2C(=O)CC(C)(C)C3)cc1` [C-ABL, 3-(4-Acetyl-phenyl)-6,6-dimethyl-3,5,6,7-tetrahydro-benzoimidazol-4-one], the IC50 in assay [1] was 0.059 µM; in assay [3] (setting [4]), 8.8 µM. For the same compound, the Selectivity in assay [2] was 150.

For “3-(4-Chloroophenyl)-6,6-spirocyclopropyl-3,5,6,7-tetrahydro-benzimidazolo-4-one [C-ACF]”, the half-inhibitory concentration (IC50) in assay [1] worked out at 0.01 µM; in assay [3] (setting [4]) it was 0.59 µM. In assay [2], this compound returned a Selectivity of 57.

With `CC1(C)CC(=O)c2c(ncn2Cc2ccccc2)C1` [C-ADR, 3-Benzyl-6,6-dimethyl-3,5,6,7-tetrahydro-benzoimidazol-4-one], the concentration for half-maximal inhibition (IC50) in assay [1] came out at 0.097 µM; in assay [3] (setting [4]), 9.4 µM. In assay [2], the Selectivity is 97.

Take `N#Cc1ccc(-n2cnc3c2C(=O)CCC3)c(C2CC2)c1` [C-AAK, 3-Cyclopropyl-4-(7-oxo-4,5,6,7-tetrahydro-benzoimidazol-1-yl)-benzonitrile]: the 50% inhibitory concentration (IC50) is 0.034 µM in assay [1] and 17 µM in assay [3] (setting [4]). In assay [2], the Selectivity turned out to be 500.

Turning to `O=C1CCCc2ncn(-c3ccc4c(c3)CCO4)c21` [C-AAE, 3-(2,3-Dihydro-benzofuran-5-yl)-3,5,6,7-tetrahydro-benzoimidazol-4-one], the IC50 in assay [1] amounted to 0.011 µM; in assay [3] (setting [4]), 9.4 µM. In assay [2], this compound displayed a Selectivity of 890.

With `CC1(C)CC(=O)c2c(ncn2[C@H]2C[C@@H]3CC[C@H]2C3)C1` [C-ACL, 3-(1S,2S,3R)-Bicyclo[2.2.1]hept-2-1-6,6-dimethyl-3,5,6,7-tetrahydro-benzoimidazol-4-one], the figures for the IC50 in assay [1] and in assay [3] (setting [4]) were 0.18 µM and 16 µM, respectively. This compound also gave a Selectivity in assay [2] of 87.

Consider `CC1(C)CC(=O)c2c(ncn2-c2cccc(C(F)(F)F)c2)C1` [C-ABZ, 6,6-Dimethyl-3-(3-trifluoromethyl-phenyl)-3,5,6,7-tetrahydro-benzoimidazol-4-one], for which the IC50 was 0.073 µM in assay [1] and 27 µM in assay [3] (setting [4]). The compound further gave a Selectivity in assay [2] of 370.

Take `Cc1cc(-n2cnc3c2C(=O)CC2(CCOCC2)C3)ccc1C#N` [C-AAO, 2-Methyl-4-(7-oxospiro[4,6-dihydrobenzoimidazole-5,4′-tetrahydropyran]-1-yl)benzonitrile]: the half-inhibitory concentration (IC50) in assay [1] was 0.077 µM; in assay [3] (setting [4]), 2.3 µM. Moreover, the Selectivity in assay [2] is listed as 30.

As for `CC(=O)N1CCc2cc(-n3cnc4c3C(=O)CCC4)ccc21` [C-AAA, 3-(1-Acetyl-2,3-dihydro-1H-indol-5-yl)-3,5,6,7-tetrahydro-benzoimidazol-4-one], the concentration for half-maximal inhibition (IC50) in assay [1] is 0.51 µM; in assay [3] (setting [4]) it was greater than 30 µM. Further, in assay [2], the Selectivity is 59.

For `CN1Cc2cc(-n3cnc4c3C(=O)CCC4)ccc2CC1=O` [C-AAC, 2-Methyl-7-(7-oxo-4,5,6,7-tetrahydro-benzoimidazol-1-yl)-1,4-dihydro-2H-isoquinolin-3-one], the IC50 is 0.72 µM in assay [1] and greater than 30 µM in assay [3] (setting [4]). This compound yielded a Selectivity in assay [2] of 42.

Regarding `CC1(C)CC(=O)c2c(ncn2-c2ccc3c(c2)OCO3)C1` [C-ABU, 3-Benzo[1,3]dioxol-5-yl-6,6-dimethyl-3,5,6,7-tetrahydro-benzoimidazol-4-one], the figures for the half-inhibitory concentration (IC50) in assay [1] and in assay [3] (setting [4]) were 0.034 µM and 4.2 µM, respectively. Moreover, in assay [2], the Selectivity was 120.

Take `CC1CCc2ncn(-c3ccc(C#N)cc3)c2C1=O` (stereo not drawn) [C-ADY, 4-(6-Methyl-7-oxo-4,5,6,7-tetrahydro-benzoimidazol-1-yl)-benzonitrile]: the IC50 in assay [1] amounted to 0.024 µM; in assay [3] (setting [4]), 3.64 µM. The compound also registered a Selectivity in assay [2] of 152.

Consider `O=C1CCCc2ncn(C3Cc4ccccc4C3)c21` [C-ADK, 3-Indan-2-yl-3,5,6,7-tetrahydro-benzoimidazol-4-one], for which the IC50 is 0.021 µM in assay [1] and 8.4 µM in assay [3] (setting [4]). In addition, the Selectivity in assay [2] came to 400.
